Data: PubChem BioAssay (NCI)
Values joined by “and” are separate entries in the source; they are usually repeats but may differ in a detail not shown here. Identical values can stand only once.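 A five-concentration, 48-hour dose response in 96-well plates underlies each endpoint, interpolated linearly between surrounding concentrations. At the GI50, growth is halved. TGI: concentration producing complete growth inhibition.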

Tests used:
Assay in all cases: NCI anticancer screen, dose series, 48 h
COLO 205 colon = system: COLO 205 colon
KM12 colon = system: KM12 colon
HS 578T breast = system: HS 578T breast
786-0 renal = system: 786-0 renal
HOP-92 NSCLC = system: HOP-92 NSCLC
SK-MEL-5 melanoma = system: SK-MEL-5 melanoma
A498 renal = system: A498 renal
A549 NSCLC = system: A549 NSCLC
MOLT-4 leukemia = system: MOLT-4 leukemia
CCRF-CEM leukemia = system: CCRF-CEM leukemia

SMILES	TGI (COLO 205 colon)	TGI (KM12 colon) [µM]	TGI (HS 578T breast) [µM]	TGI (786-0 renal) [µM]	TGI (HOP-92 NSCLC) [µM]	TGI (SK-MEL-5 melanoma) [µM]	TGI (A498 renal) [µM]	TGI (A549 NSCLC) [µM]	TGI (MOLT-4 leukemia) [µM]	TGI (CCRF-CEM leukemia)	GI50 (HS 578T breast) [µM]	GI50 (A498 renal) [µM]
CN(C)CC1CCCc2ccccc2C1=O (centres undefined)	12.5 µM	4.69	16.3	2.8	34.8	15.9	49.6	39.5	–	–	–	–
COc1ccc(C2=C(Cl)c3cc(OC)c(OC)cc3C2)cc1OC	> 100 µM	–	–	> 100	> 100	> 100	> 100	> 100	> 100	> 100 µM	–	–
O=S1(=O)OCCCOS(=O)(=O)C1(Br)Br	> 100 µM	> 100	> 100	> 100	–	> 100	–	> 100	> 100	> 100 µM	–	–
O=C(CC(c1ccccc1)C(C(=O)c1ccncc1)C(CC(=O)c1ccncc1)c1ccccc1)c1ccncc1 (centres undefined)	> 100 µM	> 100	> 100	> 100	> 100	–	> 100	> 100	> 100	> 100 µM	–	–
COc1ccc(CCCN2c3ccccc3Sc3ccccc32)cc1	> 100 µM	> 100	–	> 100	> 100	> 100	> 100	> 100	> 100	> 100 µM	–	–
O=C(NN1C(=O)C(Cl)C1c1ccccc1Cl)c1ccccc1O (centres undefined)	–	> 100	–	> 100	–	> 100	–	> 100	> 100	> 100 µM	–	–
Cc1c2oc3c(C)cc(F)c(C(=O)NC4C(=O)NC(C(C)C)C(=O)N5CCCC5C(=O)N(C)CC(=O)N(C)C(C(C)C)C(=O)OC4C)c3nc-2c(C(=O)NC2C(=O)NC(C(C)C)C(=O)N3CCCC3C(=O)N(C)CC(=O)N(C)C(C(C)C)C(=O)OC2C)c(N)c1=O (centres undefined)	0.286 µM and 0.354 µM	–	> 100	78.5	0.887	0.223	0.902	–	0.00545	0.0385 µM and 0.309 µM	0.5	0.85
O=C(/C=C/c1ccccc1)Oc1cccc(Br)c1	> 100 µM	> 100	> 100	> 100	> 100	> 100	> 100	> 100	29.8	–	–	–
COc1cccc([C@@H]2CC(=O)c3cc4c(cc3N2)OCO4)c1	> 100 µM	> 100	> 100	> 100	> 100	> 100	> 100	> 100	–	> 100 µM	–	–
Cc1ccc2c(=O)cc(Cc3csc4ccccc34)[nH]c2n1	> 100 µM	> 100	46.9	> 100	–	32.4	> 100	> 100	> 100	> 100 µM	–	–
O=C1c2cccnc2-c2nccc3c2c1nc1ccc(Br)cc13	1.6 µM	0.207	–	0.0986	0.794	0.0887	0.223	0.387	0.569	0.133 µM	–	–
